A word on the inhibition: it is the percentage by which the read-out fell short of the control. As a reminder, the IC50 is the concentration at which inhibition is half-maximal. A higher IC50 goes with a need for much substance.

SMILES strings stand for the structures.

Experiment [1] deals with Prostaglandin G/H synthase 1 (Ovis aries) (UniProt P05979). As to the kind of experiment: Inhibition of COX1 at 100 uM.
Experiment [2] has the same target. As to the kind of experiment: Inhibition of COX1.
Experiment [3] has the same target. As to the kind of experiment: Inhibition of COX1 at 200 uM.

Sequence of Prostaglandin G/H synthase 1 (Ovis aries) (P05979 whole entry, looked up): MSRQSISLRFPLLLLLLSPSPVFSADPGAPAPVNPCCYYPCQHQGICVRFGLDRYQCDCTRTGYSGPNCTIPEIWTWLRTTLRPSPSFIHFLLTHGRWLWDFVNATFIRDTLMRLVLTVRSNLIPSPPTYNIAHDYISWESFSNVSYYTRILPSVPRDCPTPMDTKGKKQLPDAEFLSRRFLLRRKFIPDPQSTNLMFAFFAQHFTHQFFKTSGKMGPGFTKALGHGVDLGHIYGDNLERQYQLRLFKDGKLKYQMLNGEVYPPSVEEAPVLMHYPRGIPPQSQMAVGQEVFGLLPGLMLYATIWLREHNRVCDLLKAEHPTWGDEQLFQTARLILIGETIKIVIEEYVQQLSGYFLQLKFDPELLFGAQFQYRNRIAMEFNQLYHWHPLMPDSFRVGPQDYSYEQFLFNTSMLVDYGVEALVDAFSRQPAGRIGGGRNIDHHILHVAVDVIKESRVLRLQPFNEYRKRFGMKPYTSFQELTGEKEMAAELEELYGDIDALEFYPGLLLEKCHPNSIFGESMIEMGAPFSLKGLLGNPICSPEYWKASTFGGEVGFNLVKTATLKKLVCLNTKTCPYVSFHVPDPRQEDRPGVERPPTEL

As for `CC1=C/C(=C2\C(=O)N(c3ccccc3)N=C2C)OC(=O)N1c1ccc(Br)cc1`, the inhibition in experiment [1] worked out at 15%.

Molecule `CC1=C/C(=C2\C(=O)N(c3ccccc3)N=C2C)OC(=O)N1Cc1ccccc1` came in with an inhibition in experiment [1] of 18%.

Take `CC1=C/C(=C2\C(=O)N(c3ccccc3)N=C2C)OC(=O)N1c1ccccc1`: the inhibition in experiment [1] was determined as 61.8%. This molecule gave an IC50 in experiment [2] of 79.4 µM.

Turning to `COc1ccc(N2C(=O)O/C(=C3/C(=O)N(c4ccccc4)N=C3C)C=C2C)cc1`, in experiment [1], the inhibition worked out at 22.6%. Also, half-maximal inhibition in experiment [2] (IC50) was put at 269 µM.

Consider `CCN1C(=O)O/C(=C2/C(=O)N(c3ccccc3)N=C2C)C=C1C`, for which the inhibition in experiment [3] is 19.9%; in experiment [1], 0%.

`CCCN1C(=O)O/C(=C2/C(=O)N(c3ccccc3)N=C2C)C=C1C` gave an inhibition in experiment [1] of 16%.

In experiment [1], `CC1=C/C(=C2\C(=O)N(c3ccccc3)N=C2C)OC(=O)N1c1ccc(C)cc1` had an inhibition of 54.6%. The molecule also returned an IC50 in experiment [2] of 91.2 µM.

For `CC1=C/C(=C2\C(=O)N(c3ccccc3)N=C2C)OC(=O)N1c1ccc(Cl)cc1`, in experiment [1], the inhibition is 21.9%. The molecule further came in with a half-maximal inhibitory concentration (IC50) in experiment [2] of 251 µM.

(Values after ChEMBL document CHEMBL1143947, “Synthesis and in silico biological activity evaluation of new N-substituted pyrazolo-oxazin-2-one systems” (Bioorg Med Chem, 2008).)
